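48-hour exposure; five concentrations; linearly interpolated endpoints. GI50 = concentration required for 50% inhibition of growth. TGI is the concentration that stops growth completely.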
Experiments:
Test in all cases: NCI tumour cell line growth inhibition, 48 h
[1] = system: U251 CNS
[2] = system: SNB-19 CNS
[3] = system: HCC-2998 colon
[4] = system: A498 renal
[5] = system: BT-549 breast
[6] = system: OVCAR-4 ovarian
[7] = system: MDA-MB-435
[8] = system: SF-539 CNS
[9] = system: NCI-H460 lung
[10] = system: MOLT-4 leukemia
[11] = system: SK-MEL-28 melanoma
[12] = system: TK-10 renal
[13] = system: 786-0 renal
[14] = system: MALME-3M melanoma
[15] = system: UACC-257 melanoma
[16] = system: SF-295 CNS
[17] = system: SN12C renal
[18] = system: NCI-H226 lung
[19] = system: HOP-62 NSCLC
[20] = system: HCT-15 colon
[21] = system: IGROV1 ovarian
[22] = system: RXF 393 renal
[23] = system: OVCAR-8 ovarian
[24] = system: RPMI-8226 leukemia
[25] = system: UACC-62 melanoma
[26] = system: SK-MEL-5 melanoma
[27] = system: CCRF-CEM leukemia
[28] = system: SNB-75 CNS
[29] = system: ACHN renal
[30] = system: OVCAR-5 ovarian
[31] = system: SR leukemia
[32] = system: HOP-92 NSCLC
[33] = system: MCF7 breast
[34] = system: HL-60(TB) leukemia
[35] = system: DU-145 prostate
[36] = system: MDA-MB-231 breast
[37] = system: UO-31 renal
[38] = system: K-562 leukemia
[39] = system: NCI-H522 lung
[40] = system: KM12 colon
[41] = system: HT29 colon
[42] = system: NCI/ADR-RES ovarian
[43] = system: HS 578T breast
[44] = system: CAKI-1 renal
[45] = system: SW-620 colon
[46] = system: SF-268 CNS
[47] = system: SK-OV-3 ovarian
[48] = system: COLO 205 colon
[49] = system: SK-MEL-2 melanoma
[50] = system: EKVX NSCLC
[51] = system: OVCAR-3 ovarian
[52] = system: M14 melanoma
[53] = system: A549 NSCLC
[54] = system: PC-3 prostate
[55] = system: T-47D breast

Q: Which GI50 [1] does the source give for `CCNC(=O)Oc1ccc(/C(=C(/C)c2ccccc2)c2ccc(OCCN3CCCCCC3)cc2)cc1` here?
A: The GI50 was 1.58 µM.

Q: What about the TGI [1] of the same compound?
A: The TGI was 3.2 µM.

Q: What about the GI50 [2] of the same compound?
A: Its GI50 is 3.82 µM.

Q: And the TGI [2]?
A: Its TGI is 13.4 µM.

Q: What about the GI50 [3] of the same compound?
A: The GI50 was 2 µM.

Q: And the TGI [3]?
A: The TGI was 3.89 µM.

Q: What about the GI50 [4] of the same compound?
A: Its GI50 is 10.4 µM.

Q: What about the TGI [4] of the same compound?
A: The TGI was 24.7 µM.

Q: And the GI50 [5]?
A: Its GI50 is 1.71 µM.

Q: What about the TGI [5] of the same compound?
A: Its TGI is 3.38 µM.

Q: And the GI50 [6]?
A: Its GI50 is 3.05 µM.

Q: And the TGI [6]?
A: The TGI was 11.8 µM.

Q: And the GI50 [7]?
A: Its GI50 is 1.7 µM.

Q: What about the TGI [7] of the same compound?
A: The TGI was 3.29 µM.

Q: And the GI50 [8]?
A: Its GI50 is 1.74 µM.

Q: And the TGI [8]?
A: The TGI was 3.21 µM.

Q: What about the GI50 [9] of the same compound?
A: The GI50 was 1.99 µM.

Q: What about the TGI [9] of the same compound?
A: Its TGI is 4.14 µM.

Q: What about the GI50 [10] of the same compound?
A: The GI50 was 2.4 µM.

Q: And the TGI [10]?
A: Its TGI is 12.3 µM.

Q: And the GI50 [11]?
A: Its GI50 is 1.8 µM.

Q: And the TGI [11]?
A: Its TGI is 3.62 µM.

Q: What about the GI50 [12] of the same compound?
A: The GI50 was 5.83 µM.

Q: What about the TGI [12] of the same compound?
A: Its TGI is 19.9 µM.

Q: And the GI50 [13]?
A: Its GI50 is 1.71 µM.

Q: And the TGI [13]?
A: Its TGI is 3.46 µM.

Q: And the GI50 [14]?
A: Its GI50 is 1.8 µM.

Q: What about the TGI [14] of the same compound?
A: Its TGI is 3.47 µM.

Q: And the GI50 [15]?
A: The GI50 was 1.88 µM.

Q: And the TGI [15]?
A: Its TGI is 3.87 µM.

Q: What about the GI50 [16] of the same compound?
A: Its GI50 is 1.98 µM.

Q: And the TGI [16]?
A: Its TGI is 3.94 µM.

Q: What about the GI50 [17] of the same compound?
A: Its GI50 is 2.56 µM.

Q: And the TGI [17]?
A: Its TGI is 8.36 µM.

Q: What about the GI50 [18] of the same compound?
A: Its GI50 is 2.97 µM.

Q: What about the TGI [18] of the same compound?
A: Its TGI is 10.8 µM.

Q: And the GI50 [19]?
A: The GI50 was 2.05 µM.

Q: What about the TGI [19] of the same compound?
A: The TGI was 4.82 µM.

Q: And the GI50 [20]?
A: The GI50 was 1.53 µM.

Q: What about the TGI [20] of the same compound?
A: The TGI was 3.33 µM.

Q: What about the GI50 [21] of the same compound?
A: The GI50 was 3.64 µM.

Q: What about the TGI [21] of the same compound?
A: Its TGI is 14.8 µM.

Q: What about the GI50 [22] of the same compound?
A: Its GI50 is 1.65 µM.

Q: What about the TGI [22] of the same compound?
A: Its TGI is 3.27 µM.

Q: And the GI50 [23]?
A: The GI50 was 3.07 µM.

Q: What about the TGI [23] of the same compound?
A: The TGI was 10.7 µM.

Q: And the GI50 [24]?
A: The GI50 was 1.95 µM.

Q: What about the TGI [24] of the same compound?
A: Its TGI is 4.65 µM.

Q: What about the GI50 [25] of the same compound?
A: The GI50 was 1.91 µM.

Q: And the TGI [25]?
A: The TGI was 3.87 µM.

Q: What about the GI50 [26] of the same compound?
A: The GI50 was 1.74 µM.

Q: What about the TGI [26] of the same compound?
A: The TGI was 3.16 µM.

Q: And the GI50 [27]?
A: The GI50 was 2.92 µM.

Q: And the TGI [27]?
A: Its TGI is 28.7 µM.

Q: What about the GI50 [28] of the same compound?
A: Its GI50 is 1.85 µM.

Q: And the TGI [28]?
A: The TGI was 4.36 µM.

Q: What about the GI50 [29] of the same compound?
A: The GI50 was 3.37 µM.

Q: And the TGI [29]?
A: Its TGI is 10.6 µM.

Q: And the GI50 [30]?
A: Its GI50 is 4.35 µM.

Q: And the TGI [30]?
A: The TGI was 17.8 µM.

Q: And the GI50 [31]?
A: Its GI50 is 2.04 µM.

Q: And the TGI [31]?
A: Its TGI is 6.59 µM.

Q: And the GI50 [32]?
A: Its GI50 is 1.23 µM.

Q: And the TGI [32]?
A: Its TGI is 4.62 µM.

Q: What about the TGI [33] of the same compound?
A: The TGI was 2.6 µM.

Q: And the GI50 [34]?
A: The GI50 was 1.8 µM.

Q: And the TGI [34]?
A: The TGI was 6.15 µM.

Q: And the GI50 [35]?
A: The GI50 was 4.92 µM.

Q: What about the TGI [35] of the same compound?
A: Its TGI is 20.3 µM.

Q: And the GI50 [36]?
A: The GI50 was 2.25 µM.

Q: What about the TGI [36] of the same compound?
A: The TGI was 4.84 µM.

Q: And the GI50 [37]?
A: Its GI50 is 1.52 µM.

Q: What about the TGI [37] of the same compound?
A: The TGI was 4.43 µM.

Q: And the GI50 [38]?
A: Its GI50 is 1.82 µM.

Q: And the TGI [38]?
A: The TGI was greater than 100 µM.

Q: And the GI50 [39]?
A: The GI50 was 1.8 µM.

Q: What about the TGI [39] of the same compound?
A: Its TGI is 3.75 µM.

Q: What about the GI50 [40] of the same compound?
A: The GI50 was 3 µM.

Q: What about the TGI [40] of the same compound?
A: Its TGI is 11.1 µM.

Q: And the GI50 [41]?
A: The GI50 was 1.27 µM.

Q: What about the TGI [41] of the same compound?
A: The TGI was 3.27 µM.

Q: What about the GI50 [42] of the same compound?
A: Its GI50 is 2.22 µM.

Q: What about the TGI [42] of the same compound?
A: Its TGI is 6.4 µM.

Q: And the GI50 [43]?
A: The GI50 was 1.91 µM.

Q: And the TGI [43]?
A: The TGI was 4.67 µM.

Q: And the GI50 [44]?
A: The GI50 was 1.94 µM.

Q: And the TGI [44]?
A: Its TGI is 4.28 µM.

Q: What about the GI50 [45] of the same compound?
A: Its GI50 is 2.11 µM.

Q: What about the TGI [45] of the same compound?
A: The TGI was 5.15 µM.

Q: What about the GI50 [46] of the same compound?
A: The GI50 was 4 µM.

Q: And the TGI [46]?
A: Its TGI is 18.6 µM.

Q: And the GI50 [47]?
A: Its GI50 is 2.74 µM.

Q: And the TGI [47]?
A: Its TGI is 8.06 µM.

Q: And the GI50 [48]?
A: Its GI50 is 1.56 µM.

Q: And the TGI [48]?
A: Its TGI is 2.98 µM.

Q: And the GI50 [49]?
A: Its GI50 is 2.48 µM.

Q: And the TGI [49]?
A: The TGI was 6.76 µM.

Q: And the GI50 [50]?
A: Its GI50 is 3.24 µM.

Q: And the TGI [50]?
A: The TGI was 12.2 µM.

Q: And the GI50 [51]?
A: Its GI50 is 2.87 µM.

Q: What about the TGI [51] of the same compound?
A: The TGI was 8.2 µM.

Q: What about the GI50 [52] of the same compound?
A: The GI50 was 1.8 µM.

Q: What about the TGI [52] of the same compound?
A: Its TGI is 3.62 µM.

Q: And the GI50 [53]?
A: The GI50 was 3.26 µM.

Q: And the TGI [53]?
A: The TGI was 13.1 µM.

Q: And the GI50 [54]?
A: Its GI50 is 1.74 µM.

Q: And the TGI [54]?
A: The TGI was 4.19 µM.

Q: What about the GI50 [55] of the same compound?
A: The GI50 was 1.15 µM.

Q: And the TGI [55]?
A: Its TGI is 6.04 µM.
